Assay [1] concerns human aortic smooth muscles cells (ASMC). Kind of assay: DNA laddering assay. Type of assay: cell-based. The following applies: ApoCI or ApoCIII 2.5 μg/mL, TNF-α positive control. As to the method: FIGS. 1A-1C depict the effect of apolipoproteins on apoptosis in human aortic smooth muscles cells (ASMC). ASMC were grown on sterilized glass cover slips and incubated for 24 hours with media alone (control), ApoCIII (negative control, 2.5 μg/mL medium), ApoCI (2.5 μg/mL medium), ApoCI-enriched HDL (1 μg apoA-I/mL medium), or ApoCI-poor HDL (5 μg apoA-I/mL medium) for 24 hours. Cells were then fixed with ethanol-acetic acid (3:1 volume/volume) and washed 3 times with phosphate-buffered saline. The cells were then stained with DAPI reagent, mounted on a glass cover slide, and subjected to fluorescence microscopy. FIG. 1A: The nucleus of normal cells stains blue and the nucleus of apoptotic cells stains is fragmented white. FIG. 1B: 300 to 500 cells in each sample were counted and the percent of apoptotic cells was plotted. Values are mean±SD; **P<0.01, ***P<0.001. FIG. 1C: DNA ladder assay. Confluent cultures of ASMC were incubated with control medium alone, ApoCI (2.5 μg/mL medium), ApoCIII (negative control, 2.5 μg/mL medium), and TNF-α (positive control, 20 ng/mL medium). Genomic DNA was extracted and 10 μg DNA was subjected to agarose gel electrophoresis. The gels were calibrated with commercially available DNA standards. After electrophoresis, the gels were stained with ethidium bromide and then photographed.
Cells were treated with either TNF-α (30 ng/ml), ApoCI or ApoCIII (2.5 μg/ml) for 6 h. The cells were then washed twice with minimal essential medium and harvested with buffer (10 mM HEPES, pH 7.4. 5 mM EDTA, 0.25 mM EGTA, 50 mM NaF, 5 mM β-mercaptoethanol, 0.35 M sucrose, 0.1% Nonidet and protease inhibitors, 1 mM phenylmethylsulfonyl fluoride, 2 μg/ml leupeptin and 5 μg/ml pepstatin), and pelleted. Genomic DNA was prepared employing standard protocol. Genomic DNA was subjected to electrophoresis, stained with ethidium bromide and the gel was photographed. The gel was calibrated using DNA fragments of known molecular weight.

A further assay concerns ceramide. Description: Measurement of the ceramide level (diacylglycerol kinase assay) in ASMC. Type of assay: cell-based, human. As to the method: FIGS. 4A-4D depict the effect of ApoCI, ApoCI-enriched HDL, and ApoCI-poor HDL on the level of ceramide in ASMC. Confluent ASMC were incubated with ApoCI (2.5 μg/mL) with time (FIG. 4A, upper left) or with ApoCI-enriched HDL (1 μg apoA-I/mL medium) or ApoCI-poor HDL (5 μg apoA-I/mL medium) (FIG. 4B, upper right) for 30 minutes. FIG. 4C: The cells were incubated with ApoCI alone ([…]) for 5 minutes or preincubated with GW4869 (20 μmol/L) for 30 minutes. After addition of ApoCI (2.5 μg/mL), incubation was continued for 6 hours, 12 hours, and 24 hours. After incubation, cells were harvested and the levels of ceramide determined using the diacylglycerol kinase assay. The level of phosphate was measured and the data (mean±SD) were expressed as percentage of the total ceramide present in untreated cells (vehicle DMSO). *P<0.05. In a separate experiment (FIG. 4D, right), confluent cells were grown on cover slips and pretreated with serum-free medium for 30 minutes. The cells were then incubated with vehicle DMSO alone (control), ApoCI (2.5 μg/ML), or ApoCI (2.5 μg/mL) plus the N-SMase inhibitor GW4869 (20 μmol/L) for 24 hours. The cells were then washed, treated with a primary anticeramide antibody, washed with phosphate-buffered saline, and treated with a fluorescein isothiocyanate-conjugated anti-mouse IgG (FIG. 4C, lower panel).
Cells were pelleted and extracted with chloroform-methanol-acetic acid 100:100:2 (v/v/v). Lipids in organic phase were dried in N2 atmosphere and re-extracted, and the organic phase was dried. Detergent solution (30 μl of 7.5%/n-octyl-β-glucopyranoside with 5 mM cardiolipin in 1 mM diethylenimine-pentaacetic acid) was added, and the samples were sonicated. Total inorganic phosphate level was measured employing the method of Bartlett et al. Bartlett, G R. (1959). J. Biol. Chem. 234, 449-458). Ceramide was measured using the sn-1, 2-diacylglycerolkinase-assay reagent system and labeling for 30 min with 1 mCi of [^32P] ATP in 10 μl of 5 mM ATP (Signorelli, P., and Hannun, Y. A. (2002) Meth. Enzymol. 345, 275-294). Diacylglycerol kinase was from Streptomyces species (Calbiochem, San Diego, Calif.). [^32P] ATP (specific activity 3000 Ci/mmol) was from New England Nuclear Company (Boston, Mass.). Ceramide-1-phosphate and diacylglycerol-1-phosphate were resolved by thin-layer chromatography on silica gel plates (Whatman, Clinton, N.J.), using a solvent composed of chloroform-acetone-methanol-acetic acid-water 10:4:3:2:1(v/v) and detected by autoradiography using an Instant Imager (Packard Canberra Company). Ceramide was expressed as pmol ceramide/nmol phosphate.

For the next assay, the system named is caveolin. Kind of assay: Western measurement of caveolin-I level in AoSMC. Type of assay: cell-based, human. Conditions: ApoCI-treated cells. The method, then:
Confluent cultures of AoSMC were preincubated with serum-free medium for 30 min and then treated with ApoCI (2.5 μg/ml medium), HMS (58.8 μg apoA-I/ml medium and 6.2 μg ApoCI/ml medium), and C2-Ceramide (30 μM). At indicated time periods cells were harvested in PBS and pellets lysed in 10 mM HEPES buffer (pH 7.4) 5 mM EDTA, 0.25 mM EGTA, 50 mM NaF, 0.35 M sucrose, 0.1% Nonidet P-40 and protease inhibitors 2 μg/ml aprotinin, 10 μg/ml leupeptin, 5 μg/ml pepstatin, and 1 mM PMSF. Protein concentration was determined using BCA-kit (Pierce, Rockford, Ill.). 100 μg of protein was subjected to electrophoresis in denaturing conditions on 4-15% polyacrylamide gel and electro transferred onto nitrocellulose (BioRad, Rochester, N.Y.). After the transfer, membranes were blocked for 1 h at room temperature in TBS-T/5% milk. Western assay was performed using rabbit caveolin-I (1:1000), SR-BI (1:5000) or goat ABCA1 (1:1000) primary antibody (Santa Cruz Biotechnology, Santa Cruz, Calif.) and horseradish peroxidase-conjugated anti-rabbit or anti-goat antibody (Amersham Pharmacia Biotech, Piscataway, N.J.). Blots were developed using ECL^plus Western blotting detection reagents (Amersham Pharmacia Biotech) and were scanned by laser densitometry. The intensity of the signals were quantified with the ImageGuant program (Molecular Dynamic, Sunnyvale, Calif.).

For “ApoCIII: purified human ApoCIII purchased from Academy Bio-Medical Company, used as negative control”, the “DNA laddering on agarose gel (FIG. 1C)” value in assay [1] is “did not exhibit significant DNA laddering”.
Turning to “Apolipoprotein C-I (TPDVSSALDKLKEFGNTLEDKARELISRIKQSELSAKMREWFSETFQKVKEKLKIDS; UniProt P02654 27-83, looked up) [ApoCI, 6.6-kDa single-chain plasma protein of 57 amino acids; purified human ApoCI purchased from Academy Bio-Medical Company]”, the “DNA laddering on agarose gel (FIG. 1C)” value in assay [1] was “exhibited DNA laddering”. Besides, the “maximum increase in ceramide level by ApoCI” value in the assay on ceramide (ApoCI 2.5 μg/mL, by 5 minutes) is 1.7 fold. Also, the level of caveolin result in the assay with caveolin is given as “did not alter”.
Take `O=C(/C=C/c1ccc(/C=C/C(=O)Nc2ccc(C3=NCCN3)cc2)cc1)Nc1ccc(C2=NCCN2)cc1` [GW4869]: the “effect of GW4869 on ApoCI-induced ceramide production, 24 hours” value with ceramide (GW4869 20 μmol/L, 24 hours) was “reversed it to a high level”. Also, the “effect of GW4869 on cellular level of ceramide induced by ApoCI, 5 minutes and 6 hours” value with ceramide (GW4869 20 μmol/L, after 5 minutes and 6 hours of incubation) was “significantly decreased”. The “effect of GW4869 on ApoCI-induced ceramide production, 12 hours” value with ceramide (GW4869 20 μmol/L, after 12 hours of incubation) was “completely inhibited”.

These data come from patent US8614064B2, “Methods of diagnosing atherosclerosis by measuring ApoCI” (The Johns Hopkins University, priority 2003, dated 2013).
